Data taken from the SangsterLogP compilation.

assay: not given; conditions: not given

Q: For `CC1c2nc3ccccc3c(=O)n2CN1CCc1ccccc1` (stereo not given), which logP is on record?
A: The logP was 1.8.

Q: Which logP does the source give for `CC1c2nc3ccccc3c(=O)n2CN1c1ccccc1` (stereo not given) here?
A: The logP was 1.78.

Q: Which logP does the source give for `CC1c2nc3ccccc3c(=O)n2CN1Cc1ccccc1` (stereo not given) here?
A: The logP was 1.74.

Q: Which logP does the source give for `COc1ccc(N2Cn3c(nc4ccccc4c3=O)C2C)cc1` (stereo not given) here?
A: The logP was 1.73.

Q: For `Cc1ccc(N2Cn3c(nc4ccccc4c3=O)C2C)cc1` (stereo not given), which logP is on record?
A: Its logP is 2.16.

assay: method code SF-AS, from DOI: 10.1080/01483919008048971; conditions: pH 5.0

Q: With `CC1c2nc3ccccc3c(=O)n2CN1C` (stereo not given) as the molecule, how does the logD read?
A: The logD was 0.85.

Q: Which logD does the source give for `CCN1Cn2c(nc3ccccc3c2=O)C1C` (stereo not given) here?
A: The logD was 1.02.

Q: For `CCCCN1Cn2c(nc3ccccc3c2=O)C1C` (stereo not given), which logD is on record?
A: The logD was 1.6.

Q: With `CC1c2nc3ccccc3c(=O)n2CN1CCO` (stereo not given) as the molecule, how does the logD read?
A: Its logD is 0.46.

Q: For `CCCN1Cn2c(nc3ccccc3c2=O)C1C` (stereo not given), which logD is on record?
A: Its logD is 1.4.
